Reference: patent US4311837A, “Certain heterocyclic thiomethyl derivatives of 7-(dihalogenated phenylthioacetamido)cephalosporanic acids useful in the treatment of infections caused by _Streptococcus faecalis” (Eli Lilly and Company, priority 1980, dated 1982)

Test system: Streptococcus faecalis
Assay: In vitro antibacterial activity against eleven strains of Streptococcus faecalis (agar dilution method; tube dilution per footnote)
Assay type: cell-based
Settings: Enterococcus faecalis, geometric mean against eleven strains of Streptococcus faecalis
Description: […] faecalis is classified as a species of Group D β-hemolytic streptococci, also known as enterococci. Infections caused by Group D β-hemolytic streptococci, in particular […] faecalis, are generally known to be resistant to cephalosporin antibiotics. The infections caused by Group D streptococci commonly involve the endocardium (endocarditis), the urinary tract, the intestines, the biliary tract, postoperative wounds, and interabdominal abscesses. Endocarditis is clinically a very important disease and is frequently difficult to treat by antibiotic therapy. The disease is commonly treated by infusion of penicillin G in combination with streptomycin or vancomycin. […] The results are shown in Table 1 where the activity is measured by the MIC values, defined as the concentration of the compound capable of inhibiting the growth of the test organism. |In Vitro Antibacterial Activity Against Eleven |Strains of Streptococcus faecalis | *Geometric mean MIC as determined by the tube dilution method against | eleven strains of Streptococcus faecalis.

Structure (SMILES) | MIC
Cn1c(SCC2=C(C(=O)O)N3C(=O)C(NC(=O)CSc4cc(Cl)ccc4Cl)C3SC2)nnc(O)c1=O (stereo not drawn) | 3.76 µg/mL
O=C(CSc1cc(Cl)ccc1Cl)NC1C(=O)N2C(C(=O)O)=C(CO)CS[C@H]12 (stereo partly drawn) [OH, 7-[2-[(2,5-Dichlorophenyl)thio]acetamido]-3-hydroxymethyl-3-cephem-4-carboxylic acid] | 3.11 µg/mL
O=C(CSc1cc(Cl)ccc1Cl)NC1C(=O)N2C(C(=O)O)=C(CSc3ncco3)CSC12 (stereo not drawn) | 1.88 µg/mL
CC(=O)OCC1=C(C(=O)O)N2C(=O)C(NC(=O)CSc3cc(Cl)ccc3Cl)C2SC1 (stereo not drawn) | 2 µg/mL
Cc1nnc(SCC2=C(C(=O)O)N3C(=O)C(NC(=O)CSc4cc(Cl)ccc4Cl)C3SC2)o1 (stereo not drawn) | 2.13 µg/mL
Cn1nnnc1SCC1=C(C(=O)O)N2C(=O)C(NC(=O)CSc3cc(Cl)ccc3Cl)C2SC1 (stereo not drawn) | 3.11 µg/mL
Nc1nnc(SCC2=C(C(=O)O)N3C(=O)C(NC(=O)CSc4cc(Cl)ccc4Cl)C3SC2)s1 (stereo not drawn) | 4.26 µg/mL
Cn1nnnc1SCC1=C(C(=O)O)N2C(=O)C(NC(=O)CSc3ccc(Cl)c(Cl)c3)C2SC1 (stereo not drawn) | 4.83 µg/mL
Cc1nsc(SCC2=C(C(=O)O)N3C(=O)C(NC(=O)CSc4cc(Cl)ccc4Cl)C3SC2)n1 (stereo not drawn) | 1.88 µg/mL
Cc1nnc(SCC2=C(C(=O)O)N3C(=O)C(NC(=O)CSc4cc(Cl)ccc4Cl)C3SC2)s1 (stereo not drawn) | 1.29 µg/mL
O=C(CSc1cc(Cl)ccc1Cl)NC1C(=O)N2C(C(=O)O)=C(CSc3cnsn3)CSC12 (stereo not drawn) | 1.37 µg/mL
Cc1nnc(SCC2=C(C(=O)O)N3C(=O)C(NC(=O)CSc4ccc(Cl)c(Cl)c4)C3SC2)s1 (stereo not drawn) | 1.76 µg/mL
